{
  "source": "patent US8609693B2",
  "about": "“Methods of administration of thrombopoietin agonist compounds” (GlaxoSmithKline LLC, priority 2009, dated 2013)",
  "origin": "cited, not measured here",
  "system": "platelet counts",
  "conditions": "50 mg, 75 mg and 100 mg dose; patients receiving carboplatin/paclitaxel",
  "data": [
    {"compound": "CC1=NN(c2ccc(C)c(C)c2)C(=O)/C1=N\\Nc1cccc(-c2cccc(C(=O)O)c2)c1O", "note": "[Compound B, 3′-[(2Z)-[1-(3,4-dimethylphenyl)-1,5-dihydro-3-methyl-5-oxo-4H-pyrazol-4-ylidene]hydrazino]-2′-hydroxy-[1,1′-biphenyl]-3-carboxylic acid]", "values": [
      {"measurement": "target platelet improvement counts", "result": "not meet the target platelet improvement counts"}
    ]}
  ]
}
